Measurements taken from patent publication US7973069B2 (PTC Therapeutics, Inc., priority 2004, dated 2011).
Values joined by “and” are separate entries in the source; they are usually repeats but may differ in a detail not shown here. Equal entries are not always repeated.

System: HCV replicon
Type: cell-based

Row | Compound | IC50
1 | CCOc1ccc2c(C#N)c(-c3ccc(NC(=O)OC(C)c4ccccc4)cc3)n(C3CCC3)c2c1 (stereo not shown) [Compound 1289] | < 0.5 µM
2 | CCCn1c(-c2ccc(NS(=O)(=O)CC)cc2)c(C#N)c2cc(OC)ccc21 [Compound 996] | < 0.5 µM and 0.5 to 2 µM
3 | CCCS(=O)(=O)Nc1ccc(-c2c(C#N)c3ccc(OCC)cc3n2CC2CCC2)cc1 [Compound 1170] | 0.5 to 2 µM
4 | CCn1c(-c2ccc(NC(=O)CCc3ccccc3)cc2)c(C#N)c2ccc(OC(F)(F)F)cc21 [Compound 916] | 0.5 to 2 µM
5 | CCOc1ccc2c(C#N)c(-c3ccc(NP(=O)(OC)OC)cc3)n(CC)c2c1 [Compound 942] | 0.5 to 2 µM
6 | CCn1c(-c2ccc(NC(=O)OCCF)cc2)c(C#N)c2ccc(OCCCCl)cc21 [Compound 1033] | < 0.5 µM
7 | COC(=O)c1ccc2c(C#N)c(-c3ccc(NC(=O)NC(C)C)cc3)n(C3CCC3)c2c1 [Compound 1301] | < 0.5 µM
8 | CCOc1ccc2c(C#N)c(-c3ccc(NC(=O)NC(C)C)cc3)n(C3CCC3)c2c1 [Compound 1080] | < 0.5 µM
9 | CCOc1ccc2c(C#N)c(-c3ccc(NC(=O)OC(C)C)cc3)n(C3CC3)c2c1 [Compound 1236] | < 0.5 µM
10 | CCOC(=O)Nc1ccc(-c2c(C#N)c3ccc(OCC)cc3n2CC2CC2)cc1 [Compound 1148] | < 0.5 µM
11 | CCNC(=O)Nc1ccc(-c2c(C#N)c3ccc(OC)cc3n2CC)cc1C [Compound 966] | 0.5 to 2 µM
12 | CCCn1c(-c2ccc(NS(=O)(=O)CC)cc2)c(C#N)c2ccc(OCc3ccccc3)cc21 [Compound 922] | 0.5 to 2 µM
13 | CCOP(=O)(Nc1ccc(-c2c(C#N)c3ccc(OC)cc3n2C2CCC2)cc1)OCC [Compound 1081] | 0.5 to 2 µM
14 | CCn1c(-c2ccc(NS(=O)(=O)C3CC3)cc2)c(C#N)c2cc3c(cc21)OCO3 [Compound 1038] | 0.5 to 2 µM
15 | CCOc1ccc2c(C#N)c(-c3ccc(NS(=O)(=O)C4CC4)cc3)n(C3CCC3)c2c1 [Compound 934] | < 0.5 µM
16 | CCOc1ccc2c(C#N)c(-c3ccc(NC(=O)OCCF)cc3)n(C3CCC3)c2c1 [Compound 974] | < 0.5 µM
17 | CCn1c(-c2cccc(NC(=O)OCCCl)c2)c(C#N)c2ccc(OCCCN3CCOCC3)cc21 [Compound 1044] | < 0.5 µM
18 | N#Cc1c(-c2ccc(NC(=O)OC3CCCC3)cc2)n(C2CCC2)c2cc(OC(F)F)ccc12 [Compound 1186] | 0.5 to 2 µM
19 | CCOC(=O)Nc1ccc(-c2c(C#N)c3ccc(OC)cc3n2CC2CC2)cc1 [Compound 984] | 0.5 to 2 µM
20 | CCOc1ccc2c(C#N)c(-c3ccc(NC(=O)OC4(C)CCCC4)cc3)n(C3CCC3)c2c1 [Compound 1209] | < 0.5 µM
21 | CCOc1ccc2c(c1)c(C#N)c(-c1ccc(NC(=O)OCC3CC3)cc1)n2C1CCC1 [Compound 1291] | < 0.5 µM
22 | CCCCn1c(-c2cccc(NC(=O)OCCC)c2)c(C#N)c2ccc(OCC)cc21 [Compound 1021] | < 0.5 µM
23 | [4-(3-cyano-1-cyclobutyl-6-cyclopropyl-1H-indol-2-yl)-phenyl]-carbamic acid tert-butyl ester [Compound 2513] | 0.5 to 2 µM
24 | CCCCS(=O)(=O)Nc1ccc(-c2c(C#N)c3ccc(OCCF)cc3n2CC)cc1 [Compound 953] | 0.5 to 2 µM
25 | CC(C)NC(=O)Nc1ccc(-c2c(C#N)c3ccc(OCCN4CCC4)cc3n2C2CCC2)cc1 [Compound 1316] | < 0.5 µM
26 | C=CCNC(=O)Nc1ccc(-c2c(C#N)c3cc(OC)ccc3n2CC)cc1 [Compound 1013] | 0.5 to 2 µM
27 | COCn1c(-c2ccc(N3CCCS3(=O)=O)cc2)c(C#N)c2ccc(OC)cc21 [Compound 990] | 0.5 to 2 µM

Row | Compound | IC50
28 | CCOc1ccc2c(c1)c(C#N)c(-c1ccc(NC(=O)OC(C)C3CC3)cc1)n2C1CCC1 (stereo not shown) [Compound 1295] | < 0.5 µM
29 | CCCOC(=O)Nc1ccc(-c2c(C#N)c3ccc(OCC)cc3n2CC)cc1 [Compound 949] | 0.5 to 2 µM
30 | CCOc1ccc2c(C#N)c(-c3ccc(NC(=O)CC)cc3)n(CC)c2c1 [Compound 896] | 0.5 to 2 µM
31 | CCCOC(=O)Nc1ccc(-c2c(C#N)c3ccc(OC)cc3n2CC2CC2)cc1 [Compound 985] | 0.5 to 2 µM
32 | CC(OC(=O)Nc1ccc(-c2c(C#N)c3ccc(OCCn4ccnc4)cc3n2C2CCC2)cc1)C1CC1 (stereo not shown) [Compound 1328] | < 0.5 µM
33 | COc1ccc2c(c1)c(C#N)c(-c1ccc(NC(=O)NC(C)C)cc1)n2C1CCC1 [Compound 1163] | 0.5 to 2 µM
34 | CCCCn1c(-c2cccc(NC(=O)OCCC)c2)c(C#N)c2ccc(OCC)cc21 [Compound 1022] | < 0.5 µM and > 2 µM
35 | COc1ccc2c(C#N)c(-c3ccc(NC(=O)NC(C)C)cc3)n(CC3CC3)c2c1 [Compound 987] | 0.5 to 2 µM
36 | C=CCNC(=O)Nc1ccc(-c2c(C#N)c3ccc(OC(F)F)cc3n2CC2CC2)cc1 [Compound 1070] | 0.5 to 2 µM
37 | CCCNC(=O)Nc1ccc(-c2c(C#N)c3ccc(OCC)cc3n2CC(C)C)cc1 [Compound 1061] | 0.5 to 2 µM
38 | CCn1c(-c2ccc(NC(=O)OC(C)C)c(F)c2)c(C#N)c2ccc(OC)cc21 [Compound 878] | 0.5 to 2 µM
39 | CCOc1ccc2c(C#N)c(-c3ccc(NC(=O)OCc4ccccn4)cc3)n(C3CCC3)c2c1 [Compound 1264] | < 0.5 µM
40 | CCS(=O)(=O)Nc1ccc(-c2c(C#N)c3cc(OC)ccc3n2C2CCC2)cc1 [Compound 1161] | < 0.5 µM and 0.5 to 2 µM
41 | CCCn1c(-c2ccc(NC(=O)NC(C)CC)cc2)c(C#N)c2ccc(OC)cc21 (stereo not shown) [Compound 1119] | 0.5 to 2 µM
42 | CCOc1ccc2c(C#N)c(-c3ccc(NS(=O)(=O)CCCCl)cc3)n(C3CCC3)c2c1 [Compound 935] | < 0.5 µM and 0.5 to 2 µM
43 | CCn1c(-c2ccc(NC(=O)OCCF)cc2)c(C#N)c2ccc(OCCCN3CCOCC3)cc21 [Compound 1113] | 0.5 to 2 µM
44 | CCN(c1ccc(-c2c(C#N)c3ccc(C(F)(F)F)cc3n2CC)cc1)S(=O)(=O)CC [Compound 1006] | < 0.5 µM and 0.5 to 2 µM
45 | CCCOc1ccc2c(C#N)c(-c3ccc(NC(=O)OCC(C)(C)C)cc3)n(C(C)C)c2c1 [Compound 1207] | < 0.5 µM
46 | CC(C)NC(=O)Nc1ccc(-c2c(C#N)c3cc4c(cc3n2C2CCC2)OCO4)cc1 [Compound 1303] | 0.5 to 2 µM
47 | CCn1c(-c2ccc(N)c(F)c2)c(C#N)c2ccc(OC)cc21 [Compound 880] | 0.5 to 2 µM
48 | CCCn1c(-c2ccc(NS(=O)(=O)C(C)C)cc2)c(C#N)c2cc(OC)ccc21 [Compound 997] | 0.5 to 2 µM
49 | CCOc1ccc2c(C#N)c(-c3ccc(N(CC)C(=O)OC(C)C)cc3)n(C3CC3)c2c1 [Compound 1237] | 0.5 to 2 µM
50 | CCNC(=O)Nc1ccc(-c2c(C#N)c3cc(OC)ccc3n2CC)cc1 [Compound 1009] | 0.5 to 2 µM
51 | CCCOC(=O)Nc1ccc(-c2c(C#N)c3ccc(OCC)cc3n2CC2CC2)cc1 [Compound 1149] | < 0.5 µM
52 | CCCn1c(-c2ccc(NS(=O)(=O)CCC)cc2)c(C#N)c2ccc(OCc3ccccc3)cc21 [Compound 923] | 0.5 to 2 µM
53 | CCOP(=O)(Nc1ccc(-c2c(C#N)c3ccc(OC)cc3n2CC)cc1)OCC [Compound 943] | 0.5 to 2 µM
54 | N#Cc1c(-c2ccc(NC(=O)OC3CCC3)cc2)n(C2CCC2)c2cc(OCCCCN3CCCC3)ccc12 [Compound 1258] | < 0.5 µM

Row | Compound | IC50
55 | N#Cc1c(-c2ccc(NC(=O)OCC3CCC3)cc2)n(C2CCC2)c2cc(OCCCCN3CCCC3)ccc12 [Compound 1257] | < 0.5 µM
56 | CCn1c(-c2ccc(NC(=O)C(C)(C)C)cc2)c(C#N)c2ccc(OC(F)(F)F)cc21 [Compound 915] | 0.5 to 2 µM
57 | CCOc1ccc2c(c1)c(C#N)c(-c1ccc(NS(=O)(=O)CC)cc1)n2C1CCC1 [Compound 1228] | 0.5 to 2 µM
58 | CCCCOC(=O)Nc1ccc(-c2c(C#N)c3ccc(OC)cc3n2C2CCC2)cc1 [Compound 1075] | 0.5 to 2 µM
59 | CC(C)OC(=O)Nc1ccc(-c2c(C#N)c3ccc(OCCN(C)C)cc3n2C2CCC2)cc1 [Compound 1269] | < 0.5 µM
60 | CCCCNC(=O)Nc1ccc(-c2c(C#N)c3ccc(OC)cc3n2CC)cc1F [Compound 910] | 0.5 to 2 µM
61 | CCCOC(=O)Nc1ccc(-c2c(C#N)c3ccc(OCCC)cc3n2C(C)C)cc1 [Compound 1203] | < 0.5 µM
62 | CCCOc1ccc2c(C#N)c(-c3ccc(NC(=O)OC4CCOCC4)cc3)n(C(C)C)c2c1 [Compound 1248] | < 0.5 µM
63 | CCNC(=O)Nc1cccc(-c2c(C#N)c3ccc(OCCCN4CCCC4)cc3n2CC)c1 [Compound 1045] | < 0.5 µM
64 | COc1ccc2c(c1)c(C#N)c(-c1ccc(NS(=O)(=O)C(C)C)cc1)n2C1CCC1 [Compound 1231] | 0.5 to 2 µM
65 | CCCCNC(=O)Nc1ccc(-c2c(C#N)c3ccc(OCCF)cc3n2CC)cc1 [Compound 957] | < 0.5 µM
66 | CCOc1ccc2c(C#N)c(-c3ccc(NC(=O)NC4CCCC4)cc3)n(C3CCCC3)c2c1 [Compound 1214] | < 0.5 µM
67 | COc1ccc2c(C#N)c(-c3ccc(NC(=O)OCC(C)(C)C)cc3)n(C3CCC3)c2c1 [Compound 1078] | < 0.5 µM and 0.5 to 2 µM
68 | CCOc1ccc2c(C#N)c(-c3ccc(NC(=O)NC4CCCC4)cc3)n(CC3CC3)c2c1 [Compound 1173] | < 0.5 µM
69 | CCCS(=O)(=O)Nc1ccc(-c2c(C#N)c3cc(OC)ccc3n2C2CCC2)cc1 [Compound 1181] | 0.5 to 2 µM
70 | CCCOc1ccc2c(C#N)c(-c3ccc(NC(=O)NC4CC4)cc3)n(C(C)C)c2c1 [Compound 1325] | < 0.5 µM
71 | CCCOC(=O)Nc1ccc(-c2c(C#N)c3cc(OCc4ccccc4)ccc3n2CC)cc1 [Compound 926] | 0.5 to 2 µM
72 | CCOc1ccc2c(c1)c(C#N)c(-c1ccc(NC(=O)NC3CCCC3)cc1)n2C1CCC1 [Compound 1226] | < 0.5 µM
73 | C=CCNC(=O)Nc1ccc(-c2c(C#N)c3ccc(OC(F)F)cc3n2CC)cc1 [Compound 1139] | 0.5 to 2 µM
74 | CC(C)NC(=O)Nc1ccc(-c2c(C#N)c3ccc(OCCF)cc3n2C2CCC2)cc1 [Compound 1108] | < 0.5 µM
75 | CCC(C)OC(=O)Nc1ccc(-c2c(C#N)c3ccc(OCC4CCCO4)cc3n2C2CCC2)cc1 (stereo not shown) [Compound 1283] | < 0.5 µM
76 | CCCCNC(=O)Nc1ccc(-c2c(C#N)c3ccc(OCC)cc3n2CCCC)cc1 [Compound 1018] | < 0.5 µM
77 | CCOC(=O)Nc1ccc(-c2c(C#N)c3ccc(OC(F)F)cc3n2CC)cc1 [Compound 1131] | 0.5 to 2 µM
78 | CCOc1ccc2c(C#N)c(-c3ccc(NC(C)=O)cc3)n(CC)c2c1 [Compound 895] | 0.5 to 2 µM
79 | CCn1c(-c2ccc(NS(=O)(=O)C3CC3)cc2)c(C#N)c2ccc(OC(F)(F)F)cc21 [Compound 883] | < 0.5 µM
